Laboratory results: PMC5676038, “MCR-1 Inhibition with Peptide-Conjugated Phosphorodiamidate Morpholino Oligomers Restores Sensitivity to Polymyxin in Escherichia coli” (mBio, 2017)
Positions of bridges follow the written chain, without caps; N, C: chain ends. Non-standard residues stand in square brackets, D forms with d. Residues, ends and D or L forms follow the SMILES beside them. *: point of attachment. X1 = CC[C@H](C)CCCCC(=O)*; Dab = NCC[C@H](N)C(=O)O

Tests used:
[1] = tested on: E. coli MRSN 388634; experiment: Mouse septicemia model, acute; format: in vivo, BALB/c mice
Procedure: FIG 3 PPMOs rescue colistin activity in a mouse model of acute septicemia. Female BALB/c mice (7 to 8 weeks old) were infected via intraperitoneal injection with 8e4 CFU of MRSN 388634. At 2 and 6 h postinfection, 0.25 mg/kg colistin sulfate, 100 μg PPMO (~5 mg/kg), or the combination was administered via the i.p. route. Mice were euthanized at 24 h, and organ burden was determined. Numbers of CFU per gram of tissue of the liver (A) and spleen (B) are shown. (C) Morbidity was assessed immediately prior to euthanasia and scored as a maxima of 6 (moribund) and a nadir of 0. Mice that succumbed prior to euthanasia are depicted with the maxima score of 6. The data represent the means and standard errors of the means (SEM) of results from two replicate experiments (n = 4) (n = 8 per group total). n.s., not significant; *, P < 0.05; **, P < 0.01; ***, P < 0.001; ****, P < 0.0001 by Student’s t test, with the Mann-Whitney test used for morbidity.
Animal experiments were approved by the […] at UT Southwestern Medical Center (protocol number 2016-101626). The mouse model of septicemia with PPMO rescue of antibiotic activity was described previously ([10]).
(§1) Briefly, 7- to 8-week-old female BALB/c mice (Jackson Laboratory, Sacramento, CA, USA) were infected intraperitoneally (i.p.) with 8 × 10^4 CFU of E. coli (MRSN 388634) in DPBS with 5% mucin (M1778; Sigma-Aldrich). At 2 and 6 h postinfection, 0.25 mg/kg colistin sulfate, 100 µg PPMO, or the combination was administered i.p. in 100 µl DPBS. Morbidity was assessed at 24 h, immediately prior to euthanasia. Mice were scored from 0 to 6 as follows: 0 for the absence or 1 for the presence of a ruffled coat; 0 for a normal posture, 1 for a hunched posture, and 2 for a prostrate posture; and 0 for nondisturbed movement, 1 for slow movement, 2 for movement after prodding, and 3 for no movement. Mice that succumbed to infection prior to euthanasia were scored as the maxima, 6 (moribund). Spleen and liver were harvested and homogenized in 1 ml DPBS (Omni TH; Omni International, Kennesaw, GA), serially diluted, and plated on blood agar.

[2] = tested on: E. coli MRSN 388634; experiment: Mouse septicemia model, survival; format: in vivo, BALB/c mice
Procedure: FIG 4 PPMOs combined with colistin protect mice from a lethal dose of mcr-1-positive E. coli. Female BALB/c mice (7 to 8 weeks old) were infected via intraperitoneal injection with 1e6 CFU of MRSN 388634. At 2 and 6 h postinfection 0.5 mg/kg colistin sulfate, 100 μg PPMO (~5 mg/kg), or the combination was administered via the i.p. route. Mice were monitored for morbidity, with an assessment scored at a maxima of 6 (moribund; dotted line [b]) and a nadir of 0. The data represent the means and SEM from two replicate experiments (n = 4) (n = 8 per group total). (A to C) Survival curve (A), morbidity scoring (B), and weight loss measurement (C) over the course of 5 days. ****, P < 0.0001 by the Mantel-Cox log-rank test.
as §1
Mice were infected and treated as described above except that the inoculum was increased to 1 × 10^6 CFU and the colistin dose was increased to 0.5 mg/kg. Mice were weighed, and morbidity was assessed every 6 h for the first 36 h and then every 12 h out to 120 h (5 days). Mice that reached the moribund state were euthanized.

Row | Compound | burden in the liver and morbidity at 24 h, colistin alone ([1]; BALB/c, 8 × 10^4 CFU i.p., colistin sulfate 0.25 mg/kg i.p. at 2 and 6 h, n = 8) | effect on burden or morbidity at 24 h, PPMO alone ([1]; BALB/c, 8 × 10^4 CFU i.p., PPMO 100 μg (~5 mg/kg) i.p. at 2 and 6 h postinfection, n = 8) | decrease in the number of CFU, combination with colistin ([1]; PPMO ~5 mg/kg + colistin sulfate 0.25 mg/kg i.p. at 2 and 6 h, 24 h) | liver burden and morbidity, combination with colistin, compared to Ctrl PPMO and colistin ([1]; PPMO ~5 mg/kg + colistin sulfate 0.25 mg/kg i.p. at 2 and 6 h, 24 h, n = 8) | numbers of CFU in liver and spleen at 24 h, combination with colistin, compared to DPBS control ([1]; PPMO ~5 mg/kg + colistin sulfate 0.25 mg/kg i.p. at 2 and 6 h, n = 8) | survival to the 5-day endpoint, combination with colistin ([2]; BALB/c, 1 × 10^6 CFU i.p., PPMO 100 μg (~5 mg/kg) + colistin sulfate 0.5 mg/kg i.p. at 2 and 6 h, n = 6/8) [%] | body weight course, combination with colistin ([2]; PPMO ~5 mg/kg + colistin sulfate 0.5 mg/kg, over 5 days) | morbidity course, combination with colistin ([2]; PPMO ~5 mg/kg + colistin sulfate 0.5 mg/kg, score 0 to 6)
1 | CC[C@H](C)CCCCC(=O)N[C@@H](CCN)C(=O)N[C@H](C(=O)N[C@@H](CCN)C(=O)N[C@H]1CCNC(=O)[C@H]([C@@H](C)O)NC(=O)[C@H](CCN)NC(=O)[C@H](CCN)NC(=O)[C@H](CC(C)C)NC(=O)[C@@H](CC(C)C)NC(=O)[C@H](CCN)NC1=O)[C@@H](C)O [Colistin, colistin, reference compound] (X1-[Dab]T[Dab][Dab][Dab][dL]L[Dab][Dab]T; lactam 4-C (inferred); N-terminus assumed) | significant reduction | – | – | – | – | – | – | –
2 | TCAAAGAGTAC [Mcr1-0545, (RXR)4XB 3′-end-conjugated PPMO targeted to mcr-1 mRNA, positions −8 to +3; theone tested in mice] | – | Neither the MCR-1 nor the Ctrl PPMO alone had an effect | ~ 1 log | significantly less | significant reduction | 75 | continued to lose weight over the course of the experiment | increased initially, but the mice began to recover by 24 h
